Tested on: Utrophin A promoter linked to a luciferase reporter gene (H2K/mdx/Utro A reporter cell line)
Assay: Luciferase reporter assay (murine H2K cells)
Details: Mus musculus, H2K mdx

SMILES	activity at 10 µM [%]
CC(=O)Nc1cccc(-c2nc3ccccc3s2)c1 [Example 513, N-(3-(benzo[d]thiazol-2-yl)phenyl)acetamide]	< 200
Clc1cccc(-c2nc3ccccc3[nH]2)c1 [Example 514, 2-(3-chlorophenyl)-1H-benzo[d]imidazole]	< 200
COc1ccc(-c2nc3cc(N)ccc3o2)cc1OC [Example 515, 2-(3,4-dimethoxyphenyl)benzo[d]oxazol-5-amine]	201 to 300
O=S(=O)(c1ccc(-c2nc3ccccc3s2)cc1)N1CCCCC1 [Example 516, 2-(4-(piperidin-1-ylsulfonyl)phenyl)benzo[d]thiazole]	201 to 300
CC(=O)Nc1ccc2oc(-c3ccc(Cl)cc3Cl)nc2c1 [Example 517, N-(2-(2,4-dichlorophenyl)benzo[d]oxazol-5-yl)acetamide]	201 to 300
Nc1ccc(-c2nc3cc(Cl)cc(Cl)c3o2)cc1 [Example 518, 4-(5,7-dichlorobenzo[d]oxazol-2-yl)aniline]	201 to 300
COc1ccc(-c2nc3cc(NC(C)=O)ccc3o2)cc1Cl [Example 519, N-(2-(3-chloro-4-methoxyphenyl)benzo[d]oxazol-5-yl)acetamide]	201 to 300
COc1ccc(-c2nc3cc([N+](=O)[O-])ccc3[nH]2)cc1OC [Example 520, 2-(3,4-dimethoxyphenyl)-5-nitro-1H-benzo[d]imidazole]	< 200
COc1ccc(-c2nc3ccccc3n2C)cc1OC [Example 521, 2-(3,4-dimethoxyphenyl)-1-methyl-1H-benzo[d]imidazole]	< 200
COc1ccccc1-c1nc2ccccc2s1 [Example 522, 2-(2-methoxyphenyl)benzo[d]thiazole]	< 200
O=[N+]([O-])c1cc(-c2nc3ccccc3s2)ccc1Cl [Example 523, 2-(4-chloro-3-nitrophenyl)benzo[d]thiazole]	< 200
O=[N+]([O-])c1ccc(Cl)c(-c2nc3ccccc3s2)c1 [Example 524, 2-(2-chloro-5-nitrophenyl)benzo[d]thiazole]	< 200
O=[N+]([O-])c1ccc2oc(-c3ccc(F)cc3)nc2c1 [Example 525, 2-(4-fluorophenyl)-5-nitrobenzo[d]oxazole]	< 200
Cc1ccc(-c2nc3cc(N)ccc3o2)cc1Cl [Example 526, 2-(3-chloro-4-methylphenyl)benzo[d]oxazol-5-amine]	201 to 300
Cc1ccc(-c2nc3cc(N)ccc3o2)c(Cl)c1 [Example 527, 2-(2-chloro-4-methylphenyl)benzo[d]oxazol-5-amine]	201 to 300
COc1ccc(OCc2nc3ccccc3n2C)cc1 [Example 528, 2-((4-methoxyphenoxy)methyl)-1-methyl-1H-benzo[d]imidazole]	201 to 300
CC(=O)Nc1ccc(-c2nc3cc(C)cc(C)c3o2)cc1 [Example 529, N-(4-(5,7-dimethylbenzo[d]oxazol-2-yl)phenyl)acetamide]	201 to 300
c1ccc(-c2nnc(SCc3nc4ccccc4[nH]3)o2)cc1 [Example 530, 2-((1H-benzo[d]imidazol-2-yl)methylthio)-5-phenyl-1,3,4-oxadiazole]	< 200
Cc1ccc(OCc2nc3ccccc3[nH]2)cc1 [Example 531, 2-(p-tolyloxymethyl)-1H-benzo[d]imidazole]	201 to 300

SMILES	activity at 10 µM [%]
Cc1ccc2[nH]c(-c3ccc(N)cc3)nc2c1 [Example 532, 4-(5-methyl-1H-benzo[d]imidazol-2-yl)aniline]	< 200
Cc1cccc(-c2nc3cc([N+](=O)[O-])ccc3o2)c1 [Example 533, 5-nitro-2-m-tolylbenzo[d]oxazole]	201 to 300
CC(=O)Nc1ccc2[nH]c(-c3ccco3)nc2c1 [Example 534, N-(2-(furan-2-yl)-1H-benzo[d]imidazol-5-yl)acetamide]	< 200
COc1ccc(-c2nc3cc(N)ccc3[nH]2)cc1 [Example 535, 2-(4-methoxyphenyl)-1H-benzo[d]imidazol-5-amine]	201 to 300
Cc1ccc(S(=O)(=O)Nc2ccc3[nH]c(-c4ccco4)nc3c2)cc1 [Example 536, N-(2-(furan-2-yl)-1H-benzo[d]imidazol-5-yl)-4-methylbenzenesulfonamide]	< 200
COc1ccc(-c2nc3cc([N+](=O)[O-])ccc3o2)cc1OC [Example 537, 2-(3,4-dimethoxyphenyl)-5-nitrobenzo[d]oxazole]	< 200
Cc1ccc2nc(-c3cccc(NC(=O)c4ccco4)c3)[nH]c2c1 [Example 538, N-(3-(6-methyl-1H-benzo[d]imidazol-2-yl)phenyl)furan-2-carboxamide]	< 200
Cc1cc(-c2nc3cc(Cl)ccc3o2)ccc1[N+](=O)[O-] [Example 539, 5-chloro-2-(3-methyl-4-nitrophenyl)benzo[d]oxazole]	< 200
O=C(Nc1ccc(-c2nc3ccccc3[nH]2)cc1)c1ccc2c(c1)OCO2 [Example 540, N-(4-(1H-benzo[d]imidazol-2-yl)phenyl)benzo[d][1,3]dioxole-5-carboxamide]	< 200
Cn1c(-c2ccc(Cl)cc2)nc2ccccc21 [Example 541, 2-(4-chlorophenyl)-1-methyl-1H-benzo[d]imidazole]	201 to 300
COc1ccc(-c2nc3ccccc3s2)cc1NC(C)=O [Example 542, N-(5-(benzo[d]thiazol-2-yl)-2-methoxyphenyl)acetamide]	201 to 300
CSc1ccc(-c2nc3ccccc3[nH]2)cc1 [Example 543, 2-(4-(methylthio)phenyl)-1H-benzo[d]imidazole]	201 to 300
Nc1ccc(-c2nc3ccc(N)cc3o2)cc1 [Example 544, 2-(4-aminophenyl)benzo[d]oxazol-6-amine]	201 to 300
Cc1ccc2nc(-c3ccc(NC(=O)c4ccccc4C(=O)O)cc3)sc2c1 [Example 545, 2-(4-(6-methylbenzo[d]thiazol-2-yl)phenylcarbamoyl)benzoic acid]	< 200
CC1=NN(c2nc3ccccc3s2)C(=O)/C1=C(/C)NC1CC1 [Example 546, (Z)-1-(benzo[d]thiazol-2-yl)-4-(1-(cyclopropylamino)ethylidene)-3-methyl-1H-pyrazol-5(4H)-one]	< 200
C(=C\c1nc2ccccc2[nH]1)/c1ccccc1 [Example 547, (E)-2-styryl-1H-benzo[d]imidazole]	301 to 400
Cc1ccc(C)c(OCc2nc3ccccc3[nH]2)c1 [Example 548, 2-((2,5-dimethylphenoxy)methyl)-1H-benzo[d]imidazole]	< 200
CCOc1ccc(-c2nc3cc(N)ccc3o2)cc1 [Example 549, 2-(4-ethoxyphenyl)benzo[d]oxazol-5-amine]	< 200
Nc1ccc(O)c(-c2nc3cc(N)ccc3s2)c1 [Example 550, 4-amino-2-(5-aminobenzo[d]thiazol-2-yl)phenol]	< 200

SMILES	activity at 10 µM [%]
CCc1ccc2oc(-c3cc(N)ccc3O)nc2c1 [Example 551, 4-amino-2-(5-ethylbenzo[d]oxazol-2-yl)phenol]	< 200
c1ccc(NNc2nc3ccccc3s2)cc1 [Example 552, 2-(2-phenylhydrazinyl)benzo[d]thiazole]	< 200
CCc1ccc2oc(-c3ccc(N)cc3)nc2c1 [Example 553, 4-(5-ethylbenzo[d]oxazol-2-yl)aniline]	> 401
Cc1ccc2[nH]c(-c3ccccc3N)nc2c1 [Example 554, 2-(5-methyl-1H-benzo[d]imidazol-2-yl)aniline]	301 to 400
CCOc1ccc2nc(NC(=O)c3ccccc3)sc2c1 [Example 555, N-(6-ethoxybenzo[d]thiazol-2-yl)benzamide]	< 200
CC(=O)Nc1ccc(-c2nc3cc(Cl)c(NC(C)=O)cc3[nH]2)cc1 [Example 556, N-(4-(6-acetamido-5-chloro-1H-benzo[d]imidazol-2-yl)phenyl)acetamide]	< 200
Nc1ccc(Oc2ccc(-c3nc4ccccc4[nH]3)cc2)cc1 [Example 557, 4-(4-(1H-benzo[d]imidazol-2-yl)phenoxy)aniline]	> 401
c1ccc(-c2ccc(-c3nc4ccccc4[nH]3)cc2)cc1 [Example 558, 2-(biphenyl-4-yl)-1H-benzo[d]imidazole]	< 200
Cc1cc2nc(-c3cc(N)ccc3O)oc2cc1C [Example 559, 4-amino-2-(5,6-dimethylbenzo[d]oxazol-2-yl)phenol]	301 to 400
Nc1ccc2[nH]c(-c3ccc(Cl)cc3)nc2c1 [Example 560, 2-(4-chlorophenyl)-1H-benzo[d]imidazol-5-amine]	301 to 400
c1csc(-c2nc3cc4ccccc4cc3[nH]2)c1 [Example 561, 2-(thiophen-2-yl)-1H-naphtho[2,3-d]imidazole]	301 to 400
O=C(Nc1ccc(-c2nc3ccccc3[nH]2)cc1)c1ccco1 [Example 562, N-(4-(1H-benzo[d]imidazol-2-yl)phenyl)furan-2-carboxamide]	301 to 400
CCSc1nc2ccc(N)cc2s1 [Example 563, 2-(ethylthio)benzo[d]thiazol-6-amine]	201 to 300
Cc1ccc2nc(-c3ccc(NC(=O)C(C)C)cc3)oc2c1 [Example 564, N-(4-(6-methylbenzo[d]oxazol-2-yl)phenyl)isobutyramide]	< 200
CC(C)c1ccc2oc(-c3ccc(N)cc3O)nc2c1 [Example 565, 5-amino-2-(5-isopropylbenzo[d]oxazol-2-yl)phenol]	301 to 400
Cc1c(N)cccc1-c1nc2cc(Cl)ccc2o1 [Example 566, 3-(5-chlorobenzo[d]oxazol-2-yl)-2-methylaniline]	< 200
Cc1ccc(C(=O)Nc2nc3ccccc3s2)c(Cl)c1 [Example 567, N-(benzo[d]thiazol-2-yl)-2-chloro-4-methylbenzamide]	< 200
Cc1ccc(-c2nc3ccccc3[nH]2)cc1NC(=O)C(F)(F)F [Example 568, N-(5-(1H-benzo[d]imidazol-2-yl)-2-methylphenyl)-2,2,2-trifluoroacetamide]	301 to 400
Nc1ccc2oc(-c3ccccc3F)nc2c1 [Example 569, 2-(2-fluorophenyl)benzo[d]oxazol-5-amine]	301 to 400
